Tests used:
Liver microsome [1] = experiment: Drug metabolism in human liver microsomes assessed as total metabolite formation at 1 to 50 uM after 20 mins by HPLC-RA analysis in presence of mechanism-based CYP1A2 inhibitor furafylline and NADPH; format: ADME
[2] = Retention time of the compound by C18 advantage armor column based LC-MS analysis; format: physicochemical
Liver microsome [3] = experiment: Drug metabolism in human liver microsomes assessed as total metabolite formation at 1 to 50 uM after 20 mins by HPLC-RA analysis in presence of CYP2C19 inhibitor tranylcypromine; format: ADME
Cytochrome P450 2C8 = Cytochrome P450 2C8 (Homo sapiens, UniProt P10632); experiment: Activity at CYP2C8 in human liver microsomes isolated from donors assessed as metabolite formation after 24 mins by HPLC-RA analysis; format: ADME; details: 0.4 h
Liver microsome [4] = experiment: Drug metabolism in human liver microsomes assessed as total metabolite formation at 1 to 50 uM after 20 mins by HPLC-RA analysis in presence of CYP3A4 mechanism-based inhibitor TAO and NADPH; format: ADME
[5] = Activity at CYP4F in human liver microsomes assessed as metabolite formation after 15 mins by Eadie-Hofstee plot analysis; format: ADME; details: 0.25 h

Sequence of Cytochrome P450 2C8 (P10632 whole entry): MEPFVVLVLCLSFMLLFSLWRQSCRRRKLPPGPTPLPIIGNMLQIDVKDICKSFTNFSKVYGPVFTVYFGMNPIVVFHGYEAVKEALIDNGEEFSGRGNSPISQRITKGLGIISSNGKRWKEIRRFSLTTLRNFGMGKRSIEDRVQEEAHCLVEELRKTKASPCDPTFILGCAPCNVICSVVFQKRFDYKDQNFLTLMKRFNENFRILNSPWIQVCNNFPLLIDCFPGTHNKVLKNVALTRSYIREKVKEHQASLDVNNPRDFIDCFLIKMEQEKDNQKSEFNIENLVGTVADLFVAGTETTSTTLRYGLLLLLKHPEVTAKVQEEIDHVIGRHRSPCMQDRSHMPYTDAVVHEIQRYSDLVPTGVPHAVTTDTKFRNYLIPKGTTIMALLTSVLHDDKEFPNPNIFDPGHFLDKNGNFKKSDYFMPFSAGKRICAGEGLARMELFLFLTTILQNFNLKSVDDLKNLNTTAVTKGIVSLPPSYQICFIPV

Question: For `CCCCCCCCc1ccc(CC[14C](N)(CO)CO)cc1.Cl`, which Drug metabolism (Liver microsome [1]) is on record?
Answer: metabolite_detected

Question: And the Retention_time [2]?
Answer: 42.7 min

Question: And the Drug metabolism (Liver microsome [3])?
Answer: metabolite_detected

Question: What about the Drug metabolism (Cytochrome P450 2C8) of the same compound?
Answer: metabolite_not_detected

Question: And the Drug metabolism (Liver microsome [4])?
Answer: metabolite_detected

Question: What about the Km [5] of the same compound?
Answer: 183 µM

— ChEMBL document CHEMBL3525920, “CYP4F enzymes are responsible for the elimination of fingolimod (FTY720), a novel treatment of relapsing multiple sclerosis” (Drug Metab Dispos, 2011)
